Data published in patent US20190142800A1, “SYNERGISTIC ANTIFUNGAL COMPOSITIONS AND METHODS THEREOF” (VYOME THERAPEUTICS LIMITED, priority 2016, published 2019).
Blank lines part the entries; values can stand above or below the molecule they belong to.

Columns and labels:
[1] = test system: Trichophyton rubrum (ATCC-28188); test: Checkerboard assay of fatty acid/ester with antifungals on Trichophyton rubrum (ATCC 28188); format: cell-based; design: key to FIC index: FIC index = sum of FICs; FIC = agent conc in well / agent MIC; settings: for MIC: Trichophyton rubrum, ATCC28188, agent alone; for Agent MIC: agent alone
Method: (§1) The synergy is measured by determining the fractional inhibitory concentration (FIC) value of the combination. This experimental set up, called checkerboard method, allows measurement of a desired effect (inhibition of fungal growth in this case) at different combinations of various concentrations of the two agents (antifungal agent and fatty acid/ester). […] No agent is added to the penultimate column on the right and the bottom row. The final column on the right is used for growth control (only inoculum in broth) and sterility control (broth alone, no inoculum). […] FIC value for each agent in a particular well of the checkerboard layout was calculated by dividing the agent concentration in that well by the established MIC value of the agent against the test organism (Hsieh et al., Synergy assessed by checkerboard: A critical Analysis, Diagn. Microbiol. Infect Dis. (1993) 16:343-349). FIC values for both agents in a particular well were calculated in this way followed by determination of the FIC index (sum of the FICs of each drug in the concerned well). […] Agents Chemother. (2010) 54(2): 602-609].
(§2) Using the checkerboard layout experimental setup described above (FIG. 1A), various medium-chain fatty acids were tested for their ability to potentiate the activity of a known antifungal agent. Concentrations above and below the MIC of each test agent were tested using serial dilution. The same procedure was expanded to test combinations of various medium-chain fatty acids C-1 to C-14 (such caprylic acid, undecylenic acid and lauric acid) and esters thereof, with antifungal agents from various classes including azoles, allylamines, benzylamines, zinc pyrithione and piroctone olamine against both susceptible and resistant Trichophyton spp. (filamentous fungus) and Candida spp. (yeast).
(§3) Potentiation of the activity of antimycotic agents using ester derivatives of medium chain fatty acids was tested in a standard, well accepted in vitro assay system to check for synergy. This experimental set up, called checkerboard method, allows measurement of a desired effect (inhibition of fungal growth in this case) at different combinations of various concentrations of two agents. A chosen medium chain fatty acid (C-1 to C-14) or its ester derivative was tested for its ability to potentiate the activity of a known antifungal agent (various classes) using the checkerboard layout. Various concentrations above and below the MIC of each test agent were tested using serial dilution in Sabouraud dextrose broth. […] FIC value for a drug in a particular well of the checkerboard layout is calculated by dividing the drug concentration in that well by the established MIC value of the drug against the test organism (Hsieh et al., Synergy assessed by checkerboard: A critical Analysis, Diagn. Microbiol. Infect Dis. (1993) 16:343-349). FIC values for both test agents in a particular well are calculated in this way followed by determination of the FIC index (sum of the FICs of each drug in the concerned well).

[2] = test system: azole resistant C. albicans MTCC 227; test: Checkerboard assay on azole resistant C. albicans MTCC 227; format: cell-based, Candida albicans; settings: for MIC: Candida albicans, MTCC227, agent alone
Method: as §1, with “FIC” for “FIC value for each agent in a particular well of the checkerboard layout was calculated by dividing the agent concentration in that well by the established MIC value of the agent against the test organism (Hsieh et al., Synergy assessed by checkerboard: A critical Analysis, Diagn. Microbiol. Infect Dis. (1993) 16:343-349). FIC”, “Chemother.” for “Chemother. (2010) 54(2): 602-609].”
as §2
as §3, with “FIC” for “FIC value for a drug in a particular well of the checkerboard layout is calculated by dividing the drug concentration in that well by the established MIC value of the drug against the test organism (Hsieh et al., Synergy assessed by checkerboard: A critical Analysis, Diagn. Microbiol. Infect Dis. (1993) 16:343-349). FIC”

[3] = Table 4, undecylenic acid (C11) series
[4] = Table 12, undecylenic acid (C11) series
[5] = Table 2, propylene glycol monocaprylate series
[6] = Table 5, lauric acid (C12) series
[7] = Table 6, propylene glycol monolaurate series
[8] = agent's MIC in combination antifungal + lauric acid (partner: other agent of same combination no.)
[9] = agent's MIC in combination antifungal + propylene glycol monocaprylate (partner: other agent of same combination no.)
[10] = agent's MIC in combination antifungal + propylene glycol monolaurate (partner: other agent of same combination no.)
[11] = agent's MIC in combination antifungal + undecylenic acid (partner: other agent of same combination no.)
[12] = antifungal in combination with lauric acid
[13] = antifungal in combination with propylene glycol monocaprylate
[14] = antifungal in combination with propylene glycol monolaurate
[15] = antifungal in combination with undecylenic acid
[16] = combination antifungal + lauric acid
[17] = combination antifungal + propylene glycol monocaprylate
[18] = combination antifungal + propylene glycol monolaurate
[19] = combination antifungal + undecylenic acid
[20] = Table 3, glyceryl monocaprylate series
[21] = agent's MIC in combination antifungal + caprylic acid (partner: other agent of same combination no.)
[22] = agent's MIC in combination antifungal + glyceryl monocaprylate (partner: other agent of same combination no.)
[23] = antifungal in combination with caprylic acid
[24] = antifungal in combination with glyceryl monocaprylate
[25] = combination antifungal + caprylic acid
[26] = combination antifungal + glyceryl monocaprylate

MIC [1, 3]: 31.3 µg/mL
Agent MIC [1, 3]: 62.5 µg/mL
MIC [2, 4]: 500 µg/mL
Molecule: C=CCCCCCCCCC(=O)O [Undecylenic acid]

Agent MIC [1, 5]: 0.5 µg/mL
Agent MIC [1, 3]: 0.5 µg/mL
Agent MIC [1, 6]: 0.5 µg/mL
Agent MIC [1, 7]: 0.5 µg/mL
Combination MIC [1, 8]: 0.125 µg/mL
Combination MIC [1, 9]: 0.125 µg/mL
Combination MIC [1, 10]: 0.125 µg/mL
Combination MIC [1, 11]: 0.06 µg/mL
Molecule: C[C@@H]1[C@H](O)[C@@H](C)/C=C/C=C/C=C/C=C/C=C/C=C/C=C/[C@H](O[C@@H]2O[C@H](C)[C@@H](O)[C@H](N)[C@@H]2O)C[C@@H]2O[C@](O)(C[C@@H](O)C[C@@H](O)[C@H](O)CC[C@@H](O)C[C@@H](O)CC(=O)O[C@H]1C)C[C@H](O)[C@H]2C(=O)O [Amphotericin B]
FIC index [1, 12]: 0.75
Interaction [1, 12]: Synergistic (Combinations that gave FIC indices less than 1 were designated “synergistic”)
FIC index [1, 13]: 0.5
Interaction [1, 13]: Synergistic (Combinations that gave FIC indices less than 1 were designated “synergistic”)
FIC index [1, 14]: 0.5
Interaction [1, 14]: Synergistic (Combinations that gave FIC indices less than 1 were designated “synergistic”)
FIC index [1, 15]: 0.62
Interaction [1, 15]: Synergistic (Combinations that gave FIC indices less than 1 were designated “synergistic”)
FIC [1, 16]: 0.25
FIC [1, 17]: 0.25
FIC [1, 18]: 0.25
FIC [1, 19]: 0.12

MIC ([1]; Table 1, caprylic acid series): 0.125 µg/mL
MIC [1, 5]: 0.125 µg/mL
MIC [1, 20]: 0.125 µg/mL
MIC [1, 3]: 0.03 µg/mL
MIC [1, 6]: 0.03 µg/mL
MIC [1, 7]: 0.03 µg/mL
Combination MIC [1, 21]: 0.0625 µg/mL
Combination MIC [1, 22]: 0.0625 µg/mL
Combination MIC [1, 8]: 0.015 µg/mL
Combination MIC [1, 9]: 0.007 µg/mL
Combination MIC [1, 10]: 0.008 µg/mL
Combination MIC [1, 11]: 0.015 µg/mL
MIC ([2]; Table 9, caprylic acid (C8) series): 128 µg/mL
MIC ([2]; Table 10, propylene glycol monocaprylate series): 128 µg/mL
MIC ([2]; Table 11, glyceryl monocaprylate series): 128 µg/mL
MIC [2, 4]: 128 µg/mL
MIC ([2]; Table 13, lauric acid (C12) series): 128 µg/mL
MIC ([2]; Table 14, propylene glycol monolaurate series): 128 µg/mL
Combination MIC [2, 21]: 0.5 µg/mL
Combination MIC [2, 22]: 1 µg/mL
Combination MIC [2, 8]: 0.5 µg/mL
Combination MIC [2, 9]: 4 µg/mL
Combination MIC [2, 10]: 0.5 µg/mL
Combination MIC [2, 11]: 4 µg/mL
Molecule: C=C1CCN([C@H](C)[C@](O)(Cn2cncn2)c2ccc(F)cc2F)CC1 [Efinaconazole]
FIC index [1, 23]: 0.625
Interaction [1, 23]: Synergistic (Combinations that gave FIC indices less than 1 were designated “synergistic”)
FIC index [1, 24]: 0.625
Interaction [1, 24]: Synergistic (Combinations that gave FIC indices less than 1 were designated “synergistic”)
FIC index [1, 12]: 0.75
Interaction [1, 12]: Synergistic (Combinations that gave FIC indices less than 1 were designated “synergistic”)
FIC index [1, 13]: 0.556
Interaction [1, 13]: Synergistic (Combinations that gave FIC indices less than 1 were designated “synergistic”)
FIC index [1, 14]: 0.76
Interaction [1, 14]: Synergistic (Combinations that gave FIC indices less than 1 were designated “synergistic”)
FIC index [1, 15]: 0.74
Interaction [1, 15]: Synergistic (Combinations that gave FIC indices less than 1 were designated “synergistic”)
FIC [1, 25]: 0.5
FIC [1, 26]: 0.5
FIC [1, 16]: 0.5
FIC [1, 17]: 0.056
FIC [1, 18]: 0.266
FIC [1, 19]: 0.5
FIC index [2, 23]: 0.3
Interaction [2, 23]: Synergistic (Combinations that gave FIC indices less than 1 were designated “synergistic”)
FIC index [2, 24]: 0.257
Interaction [2, 24]: Synergistic (Combinations that gave FIC indices less than 1 were designated “synergistic”)
FIC index [2, 12]: 0.128
Interaction [2, 12]: Synergistic (Combinations that gave FIC indices less than 1 were designated “synergistic”)
FIC index [2, 13]: 0.281
Interaction [2, 13]: Synergistic (Combinations that gave FIC indices less than 1 were designated “synergistic”)
FIC index [2, 14]: 0.018
Interaction [2, 14]: Synergistic (Combinations that gave FIC indices less than 1 were designated “synergistic”)
FIC index [2, 15]: 0.093
Interaction [2, 15]: Synergistic (Combinations that gave FIC indices less than 1 were designated “synergistic”)
FIC [2, 25]: 0.062
FIC [2, 26]: 0.007
FIC [2, 16]: 0.003
FIC [2, 17]: 0.031
FIC [2, 18]: 0.003
FIC [2, 19]: 0.031

Molecule: Zinc pyrithione
Agent MIC ([1]; Table 1, caprylic acid series): 3.125 µg/mL
Agent MIC [1, 5]: 3.125 µg/mL
Agent MIC [1, 20]: 3.125 µg/mL
Combination MIC [1, 21]: 0.195 µg/mL
Combination MIC [1, 22]: 0.195 µg/mL
FIC index [1, 23]: 0.19
Interaction [1, 23]: Synergistic (Combinations that gave FIC indices less than 1 were designated “synergistic”)
FIC index [1, 24]: 0.3125
Interaction [1, 24]: Synergistic (Combinations that gave FIC indices less than 1 were designated “synergistic”)
FIC index [1, 13]: 0.75
Interaction [1, 13]: Synergistic (Combinations that gave FIC indices less than 1 were designated “synergistic”)
FIC [1, 25]: 0.06
FIC [1, 26]: 0.0625
